Assay [1] relates to HCT116 p53−/− colon cancer cells. The assay can be described thus: Colony formation assay, HCT116 p53−/−. The format is cell-based, human. As to the method: FIG. 6. Effect of OSW-1 on cell survival in human colon carcinoma cells. Human colon cancer cells with wild-type p53 (HCT116 p53+/+) and p53-null (HCT116 p53−/−) were treated with the indicated concentrations of OSW-1, and cell survival was measured by colony formation assay.
OSW-1 Inhibits Growth of Human Colon Cancer Cells. […] The HCT116 colon cancer cells with wild-type p53 (p53+/+) and p53-null (p53−/−) were treated with the various concentrations of orsaponin (OSW-1), and cell survival was measured by colony formation assay.

In assay [2] the test system is cancer cells of pancreatic, ovarian, colon, and CLL origins. Nature of the assay: Cytotoxicity in cancer cells, summary statement. The format is cell-based. The following applies: Homo sapiens, read-out: IC50, kills cancer cells. From the text: The results were also observed in vivo in mouse models of ovarian cancer where animal survival was improved, and tumor volume reductions were observed

Data on 1 compound can be found in patent US20050004044A1, “Use of orsaponin [3beta, 16beta, 17 alpha-trihydroxycholost-5-en-22-one 16-0-(2-0-4-methoxybenzoyl-beta-D-xylopyranosyl)-(1->3)-(2-0-acetyl-alpha-L-arabinopyranoside)] or OSW-1 and its derivatives for cancer therapeutics” (priority 2003, published 2005).

Molecules are shown by their SMILES. Some results are limits rather than exact numbers.

For the compound `COc1ccc(C(=O)OC2C(OC3C(O)COC(O[C@H]4C[C@H]5[C@@H]6CC=C7C[C@@H](O)CC[C@]7(C)[C@H]6CC[C@]5(C)[C@@]4(O)[C@H](C)C(=O)CCC(C)C)C3OC(C)=O)OCC(O)C2O)cc1` (stereo partly drawn) [OSW-1, 3β, 16β, 17 α-trihydroxycholost-5-en-22-one 16-O-(2-O-4-methoxybenzoyl-β-D-xylopyranosyl)-(1->3)-(2-O-acetyl-α-L-arabinopyranoside)], the “cell survival, colony formation” value in assay [1] was “effectively kill the p53−/− cells”. In addition, in assay [2], the IC50 was < 1 nM.

Usually IC50 stands for the concentration at which inhibition is half-maximal.
